Measurements: PMC9574929, “Development of Hydrogen Sulfide-Releasing Carbonic Anhydrases IX- and XII-Selective Inhibitors with Enhanced Antihyperalgesic Action in a Rat Model of Arthritis” (Journal of Medicinal Chemistry, 2022)
“Also recorded” adds a separate entry of the source.

Assays:
hCA XII = hCA XII (Homo sapiens, UniProt O43570); assay: Stopped-flow CO2 hydrase assay, hCA XII; details: selectivity index, ratio of KIs
Procedure: (§3) The uncatalyzed rates were determined in the same manner and subtracted from the total observed rates. Stock solutions of inhibitor (0.1 mM) were prepared in distilled-deionized water and dilutions up to 0.01 nM were done thereafter with the assay buffer. […] The inhibition constants were obtained by nonlinear least-squares methods using PRISM 3 and the Cheng–Prusoff equation, as reported earlier,[39] and represent the mean from at least three different determinations.

hCA IX = hCA IX (Homo sapiens, UniProt Q16790); assay: Stopped-flow CO2 hydrase assay, hCA IX; details: selectivity index, ratio of KIs
Procedure: as §3

[1] = tested on: rat model of arthritis induced by the intra-articular injection of complete Freund's adjuvant (CFA); assay: Incapacitance test, CFA-induced arthritis; type: in vivo; details: for reduction of spontaneous pain, Incapacitance test: single per os, 1 to 30 mg/kg, day 14 after CFA
Procedure: (§1) Articular damage was induced by injection of Complete Freund’s Adjuvant (CFA; Sigma-Aldrich, St Louis, MO, USA), containing 1 mg/mL of heat-killed and dried Mycobacterium tuberculosis in paraffin oil and mannide monooleate, into the tibiotarsal joint.[50] Briefly, the rats were lightly anesthetized with 2% isoflurane, the left leg skin was sterilized with 75% ethyl alcohol, and the lateral malleolus was located by palpation. A 28-gauge needle was then inserted vertically to penetrate the skin and turned distally for insertion into the articular cavity at the gap between the tibiofibular and tarsal bone until a distinct loss of resistance was felt. A volume of 50 μL of CFA was then injected (day 0). Control rats received 50 μL of saline solution (day 0) in the tibiotarsal joint.
(§2) The hybrid derivatives 26, 29, 30, and 31 (1, 10, and 30 mg/kg) were suspended in a 1% solution of carboxymethylcellulose (CMC) sodium salt and acutely per os administered starting from day 14 after CFA i.a. injection, when arthritis was well established. The H2S releaser 3 and CAI 15 were also administered alone or in coadministration at the equimolar dose of compound 30 30 mg/kg (13.23 and 17.71 mg/kg, respectively). The antihypersensitivity effects were evaluated over time by the Paw pressure and Incapacitance tests.
Weight-bearing changes were measured using an incapacitance apparatus (Linton Instrumentation, Norfolk, U.K.) to detect changes in postural equilibrium after a hind limb injury.[53],[54] Rats were trained to stand on their hind paws in a box with an inclined plane (65° from horizontal). This box was placed above the incapacitance apparatus. This allowed us to independently measure the weight that the animal applied on each hind limb. The value reported for each animal is the mean of five consecutive measurements. In the absence of hind limb injury, rats applied an equal weight on both hind limbs, indicating postural equilibrium, whereas an unequal distribution of weight on the hind limbs indicated a monolateral decreased pain threshold. Data are expressed as the difference between the weight applied to the limb contralateral to the injury and the weight applied to the ipsilateral limb (Δ weight).

[2] = tested on: rat model of arthritis induced by the intra-articular injection of complete Freund's adjuvant (CFA); assay: Paw pressure test, CFA-induced arthritis; type: in vivo; details: for antihyperalgesic effect, Paw pressure test, 30 mg/kg: 30 mg/kg per os; for antihyperalgesic effect, Paw pressure test, 1 mg/kg: 1 mg/kg per os; for weight tolerated on the ipsilateral paw, Paw pressure test, 10 and 30 mg/kg: 10 and 30 mg/kg per os, from 15 min up to 45 min after treatment, vs CFA-treated animals
Procedure: as §1, §2
The nociceptive threshold of rats was determined with an analgesimeter (Ugo Basile, Varese, Italy), according to the method described by Leighton et al.[51] and Maresca et al.,[52] (doi: 10.1111/jphp.12828). Briefly, a constantly increasing pressure was applied to a small area of the dorsal surface of the hind paw using a blunt conical probe by a mechanical device. Mechanical pressure was increased until vocalization or a withdrawal reflex occurred while rats were lightly restrained. Vocalization or withdrawal reflex thresholds were expressed in grams. […]

hCA IV = hCA IV (Homo sapiens, UniProt P22748); assay: Stopped-flow CO2 hydrase assay, hCA IV; details: selectivity index, ratio of KIs
hCA IV, sequence (P22748 19-312): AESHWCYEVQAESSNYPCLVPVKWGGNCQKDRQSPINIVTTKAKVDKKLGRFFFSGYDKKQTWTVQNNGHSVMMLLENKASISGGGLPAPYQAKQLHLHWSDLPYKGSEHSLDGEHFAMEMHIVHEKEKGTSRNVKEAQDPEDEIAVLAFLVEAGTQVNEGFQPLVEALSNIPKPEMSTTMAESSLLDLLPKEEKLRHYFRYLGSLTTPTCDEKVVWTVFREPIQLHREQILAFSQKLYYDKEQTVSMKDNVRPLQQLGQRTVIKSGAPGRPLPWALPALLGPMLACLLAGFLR
Procedure: as §3

rats = assay: Toxicity and Irwin test; type: in vivo, rat; set-up: key to Irwin test: Spontaneous activity / Irwin test: Straightening reflex / Irwin test: Hypo-hyperthermia / Irwin test: Cleaning / Irwin test: Curiosity / Irwin test: Reactivity / Irwin test: Convulsions: observer's semiquantitative score (0 to +4, −4 to 0, or −4 to +4); details: 30 mg/kg; for Irwin test: Cyanosis / Irwin test: Exolphthalmos / Irwin test: Flush / Irwin test: Lacrimation / Irwin test: Pallor / Irwin test: Piloerection / Irwin test: Salivation / Irwin test: Writhing / Irwin test: Palpebral opening / Irwin test: Hypo-hyperthermia: Autonomic signes; for Irwin test: Cyanosis / Irwin test: Exolphthalmos / Irwin test: Flush / Irwin test: Lacrimation / Irwin test: Pallor / Irwin test: Piloerection / Irwin test: Salivation / Irwin test: Writhing / Irwin test: Passivity / Irwin test: Vocalization / Irwin test: Ataxia / Irwin test: Stereotipies / Irwin test: Straub tail / Irwin test: Tremors / Irwin test: Delayed death (48 h) / Irwin test: Immediate death: limits 0 - 4; for Irwin test: Palpebral opening / Irwin test: Cleaning / Irwin test: Curiosity / Irwin test: Reactivity / Irwin test: Spontaneous activity / Irwin test: Straightening reflex / Irwin test: Palpebral reflex / Irwin test: Convulsions: limits 4 - 0; for Irwin test: Hypo-hyperthermia: limits -4/+4; for Irwin test: Passivity / Irwin test: Vocalization / Irwin test: Cleaning / Irwin test: Curiosity / Irwin test: Reactivity / Irwin test: Spontaneous activity: Behaviour; for Irwin test: Ataxia / Irwin test: Stereotipies / Irwin test: Straightening reflex: Movement; for Irwin test: Physical strenght: Muscolar tone, limits 4 – 0; for Irwin test: Palpebral reflex: Reflexes; for Irwin test: Straub tail / Irwin test: Tremors / Irwin test: Convulsions: S.N.C. excitement; for Irwin test: Delayed death (48 h) / Irwin test: Immediate death: Toxicity
Procedure: Toxicity was evaluated after a single acute administration of 26, 29, 30, and 31 at 30 mg/kg. […] For the Irwin test, each rat was individually placed in a transparent cage (26 × 41 cm), and 26 neurobehavioral or physiological parameters were systematically assessed according to Irwin (1968)[55] and already reported by Berrino and colleagues in similar studies.[30] Behavioral, autonomic, and neurological manifestations produced by compound administration in rats were evaluated: motor displacement, motor reflexes, stereotypies, grooming, reaction to painful or environmental stimuli (analgesia and irritability), startle response, secretions, excretions, respiratory movements, skin color and temperature, piloerection, exophthalmos, eyelid and corneal reflexes, muscle tone, ataxia, tremors, head twitches, jumps, convulsions, Straub tail, and other signs or symptoms. For postural reflexes (righting reflex) and other signs such as piloerection, exophthalmia (exaggerated protrusion of the eyeball), ataxia, tremors, and Straub tail, only presence or absence was recorded. Skin color was evaluated qualitatively (pale, red, or purple); other signs were evaluated semiquantitatively, according to the observer’s personal scale (0 to +4, −4 to 0, or −4 to +4). The terms sedation and excitation express the final interpretation of a group of signs: reduced motor activity, reduced startle response, eyelid ptosis, and reduced response to manual manipulation, for the former; and increased motor activity, increased startle response, increased response to manual manipulation, and exophthalmia, for the latter. Hyperactivity includes running, jumping, and attempting to escape from the container. Trained observers were not informed about the specific treatment of each animal group carried out in this test.

hCA XII, sequence (O43570 25-354): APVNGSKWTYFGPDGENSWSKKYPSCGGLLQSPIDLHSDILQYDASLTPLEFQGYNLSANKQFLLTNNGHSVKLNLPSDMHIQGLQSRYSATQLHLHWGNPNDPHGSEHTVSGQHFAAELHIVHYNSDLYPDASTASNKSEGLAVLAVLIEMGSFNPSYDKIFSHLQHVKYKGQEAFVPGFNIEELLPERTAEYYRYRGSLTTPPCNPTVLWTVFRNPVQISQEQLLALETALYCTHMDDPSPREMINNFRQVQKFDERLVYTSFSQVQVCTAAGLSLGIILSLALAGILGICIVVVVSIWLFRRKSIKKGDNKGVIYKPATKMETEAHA

## COc1cc([N+](=O)[O-])ccc1CN(CCc1ccc(S(N)(=O)=O)cc1)C(=O)c1ccc(-c2cssc2=S)cc1 [Compound 26, N-(2-Methoxy-4-nitrobenzyl)-N-(4-sulfamoylphenethyl)-4-(3-thioxo-3H-1,2-dithiol-4-yl)benzamide]
hCA XII
  SI CA I/XII: 870
  SI CA II/XII: 383
hCA IX
  SI CA I/IX: 1633
  SI CA II/IX: 719
[1]; per os, 45 min after treatment
  antihyperalgesic action at 45 min, Incapacitance test: almost completely reverting spontaneous pain after 45 min; also recorded: completely reverting pain 45 min after treatment
[1]
  reduction of spontaneous pain, Incapacitance test: reduced spontaneous pain in a dose-dependent manner
[2]; day 14 after CFA
  antihyperalgesic effect, Paw pressure test, 30 mg/kg: completely reverted the pain state 45 min after administration; also recorded: counteracted the mechanical hyperalgesia 45 min after injection; also recorded: completely reverting pain 45 min after treatment
[2]; single per os, 1 to 30 mg/kg, day 14 after CFA
  antihypersensitivity effect, Paw pressure test: evoked an antihypersensitivity effect in a dose-dependent manner
hCA IV
  SI CA I/IV: 1.6
  SI CA II/IV: 0.7
rats
  Irwin test: Cyanosis: 0
  Irwin test: Exolphthalmos: 0
  Irwin test: Flush: 0
  Irwin test: Lacrimation: 0
  Irwin test: Pallor: 0
  Irwin test: Piloerection: 0
  Irwin test: Salivation: 0
  Irwin test: Writhing: 0
  Irwin test: Palpebral opening: 4
  Irwin test: Hypo-hyperthermia: 0
  Irwin test: Passivity: 0
  Irwin test: Vocalization: 0
  Irwin test: Cleaning: 0
  Irwin test: Curiosity: 4
  Irwin test: Reactivity: 4
  Irwin test: Spontaneous activity: 4
  Irwin test: Ataxia: 0
  Irwin test: Stereotipies: 0
  Irwin test: Straightening reflex: 4
  Irwin test: Physical strenght: 4
  Irwin test: Palpebral reflex: 4
  Irwin test: Straub tail: 0
  Irwin test: Tremors: 0
  Irwin test: Convulsions: 0
  Irwin test: Delayed death (48 h): 0
  Irwin test: Immediate death: 0

## CSc1ccc(CN(CCc2ccc(S(N)(=O)=O)cc2)C(=O)c2ccc(-c3cssc3=S)cc2)cc1 [Compound 29, N-(4-(Methylthio)benzyl)-N-(4-sulfamoylphenethyl)-4-(3-thioxo-3H-1,2-dithiol-4-yl)benzamide]
hCA XII
  SI CA I/XII: 858
  SI CA II/XII: 1148
hCA IX
  SI CA I/IX: 156
  SI CA II/IX: 209
[1]
  reduction of spontaneous pain, Incapacitance test: reduced spontaneous pain in a dose-dependent manner
[2]
  antihyperalgesic effect, Paw pressure test, 1 mg/kg: ineffective
  weight tolerated on the ipsilateral paw, Paw pressure test, 10 and 30 mg/kg: significantly increased the weight tolerated
hCA IV
  SI CA I/IV: 17.9
  SI CA II/IV: 23.9
rats
  Irwin test: Cyanosis: 0
  Irwin test: Exolphthalmos: 0
  Irwin test: Flush: 0
  Irwin test: Lacrimation: 0
  Irwin test: Pallor: 0
  Irwin test: Piloerection: 0
  Irwin test: Salivation: 0
  Irwin test: Writhing: 0
  Irwin test: Palpebral opening: 4
  Irwin test: Hypo-hyperthermia: 0
  Irwin test: Passivity: 0
  Irwin test: Vocalization: 0
  Irwin test: Cleaning: 0
  Irwin test: Curiosity: 4
  Irwin test: Reactivity: 4
  Irwin test: Spontaneous activity: 4
  Irwin test: Ataxia: 0
  Irwin test: Stereotipies: 0
  Irwin test: Straightening reflex: 4
  Irwin test: Physical strenght: 4
  Irwin test: Palpebral reflex: 4
  Irwin test: Straub tail: 0
  Irwin test: Tremors: 0
  Irwin test: Convulsions: 0
  Irwin test: Delayed death (48 h): 0
  Irwin test: Immediate death: 0

## NS(=O)(=O)c1ccc(CCN(Cc2cccc3ccccc23)C(=O)c2ccc(-c3cssc3=S)cc2)cc1 [Compound 30, N-(Naphthalen-1-ylmethyl)-N-(4-sulfamoylphenethyl)-4-(3-thioxo-3H-1,2-dithiol-4-yl)benzamide]
hCA XII
  SI CA I/XII: >1428
  SI CA II/XII: 637
hCA IX
  SI CA I/IX: >641
  SI CA II/IX: 286
[1]; 1 mg/kg per os
  effect of the lowest dose, Incapacitance test: ineffective
[1]
  reduction of spontaneous pain, Incapacitance test: slightly greater efficacy at 10 mg/kg in comparison to the dose of 30 mg/kg
[2]
  antihyperalgesic effect, Paw pressure test, 1 mg/kg: ineffective
  weight tolerated on the ipsilateral paw, Paw pressure test, 10 and 30 mg/kg: significantly increased the weight tolerated
[2]; day 14 after CFA
  antihyperalgesic effect, Paw pressure test, 30 mg/kg: greater antihyperalgesic action with respect to 3, 15, and their co-administration
hCA IV
  SI CA I/IV: >41.0
  SI CA II/IV: 18.3
rats
  Irwin test: Cyanosis: 0
  Irwin test: Exolphthalmos: 0
  Irwin test: Flush: 0
  Irwin test: Lacrimation: 0
  Irwin test: Pallor: 0
  Irwin test: Piloerection: 0
  Irwin test: Salivation: 0
  Irwin test: Writhing: 0
  Irwin test: Palpebral opening: 4
  Irwin test: Hypo-hyperthermia: 0
  Irwin test: Passivity: 0
  Irwin test: Vocalization: 0
  Irwin test: Cleaning: 0
  Irwin test: Curiosity: 4
  Irwin test: Reactivity: 4
  Irwin test: Spontaneous activity: 4
  Irwin test: Ataxia: 0
  Irwin test: Stereotipies: 0
  Irwin test: Straightening reflex: 4
  Irwin test: Physical strenght: 4
  Irwin test: Palpebral reflex: 4
  Irwin test: Straub tail: 0
  Irwin test: Tremors: 0
  Irwin test: Convulsions: 0
  Irwin test: Delayed death (48 h): 0
  Irwin test: Immediate death: 0
